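Grown in 96-well plates, cells were treated for 48 hours with each compound at five concentrations. Insufficient inhibition: endpoint recorded as highest concentration tested. Abbreviation: GI50, concentration required for 50% inhibition of growth.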 Calls of active or inactive are those of the source. Cut-off read from the data, not from the text of the source: active = GI50 up to about 1.1 µM and inactive = higher.
Columns and labels:
Experiment in all cases: NCI-60 cell line screen, 48 h
[1] = test system: K562
[2] = test system: IGROV-1
[3] = test system: HL-60
[4] = test system: SF-295
[5] = test system: A498
[6] = test system: SNB-75
[7] = test system: OVCAR-4
[8] = test system: A549
[9] = test system: OVCAR-5
[10] = test system: SK-OV-3
[11] = test system: TK-10
[12] = test system: CCRF-CEM
[13] = test system: SF-268
[14] = test system: OVCAR-8
[15] = test system: NCI/ADR-RES
[16] = test system: MCF7
[17] = test system: MDA-MB-231
[18] = test system: PC-3

Measured: GI50

CC(C)C12C=CC(C)(CC1)n1c(=O)c3cc4ccccc4cc3c(=O)n12 (stereo unspecified)
inactive: [1] 34.4 µM | [2] 47.8 µM | [3] 34 µM | [4] 73.5 µM | [5] 22.5 µM | [6] 33.7 µM | [7] 43.9 µM | [8] 45.4 µM | [9] 40.7 µM | [10] 52.1 µM | [11] 29.9 µM | [12] 43.1 µM | [13] 67.3 µM | [14] 75.9 µM

Nc1nc(N)c2ncn(CCCC(c3ccccc3)P(=O)(O)O)c2n1 (stereo unspecified)
inactive: [1] > 100 µM | [2] > 100 µM | [3] > 100 µM | [4] > 100 µM | [5] > 100 µM | [6] > 100 µM | [8] > 100 µM | [9] > 100 µM | [10] > 100 µM | [11] > 100 µM | [12] > 100 µM | [13] > 100 µM | [14] > 100 µM

Oc1cc(-c2ccc[nH]2)nc2cc3c(cc12)OCO3
inactive: [1] 17.1 µM | [2] 33.3 µM | [3] 26.9 µM | [5] 18.6 µM | [6] 13.8 µM | [7] 21 µM | [8] 53.8 µM | [11] 62.8 µM | [12] 24.1 µM | [14] 46.7 µM

Nc1ncc(CN2CCCC2)c(-c2ccccc2O)n1
inactive: [15] > 100 µM | [1] 4.51 µM | [2] > 750 µM | [3] 4.31 µM | [4] > 750 µM | [5] > 750 µM | [6] > 750 µM | [7] > 750 µM | [8] > 750 µM | [9] > 750 µM | [16] > 100 µM | [10] > 750 µM | [11] > 750 µM | [12] 8.39 µM | [13] > 750 µM | [14] > 750 µM

COc1ccc(C=O)c([N+](=O)[O-])c1
inactive: [1] 3.71 µM | [2] 98.6 µM | [3] 4.2 µM | [4] 21 µM | [5] > 100 µM | [6] 52.1 µM | [7] 76.6 µM | [8] > 100 µM | [10] > 100 µM | [11] 87.7 µM | [12] 4.51 µM | [13] > 100 µM | [14] 31.6 µM

O=[N+]([O-])c1nccn1COCCBr
inactive: [1] > 100 µM | [3] > 100 µM | [4] > 100 µM | [6] > 100 µM | [7] > 100 µM | [8] > 100 µM | [9] > 100 µM | [10] > 100 µM | [11] > 100 µM | [12] > 100 µM | [13] > 100 µM | [14] > 100 µM

CC(=O)NNc1nc(C)c(C(=O)NNC(=O)C(=O)Nc2ccc(C)cc2[N+](=O)[O-])s1
inactive: [1] > 100 µM | [2] > 100 µM | [3] > 100 µM | [4] > 100 µM | [5] > 100 µM | [6] > 100 µM | [7] > 100 µM | [8] > 100 µM | [9] > 100 µM | [10] > 100 µM | [11] > 100 µM | [12] 46.1 µM | [13] > 100 µM | [14] > 100 µM

CC(C)c1ccccc1NC(=O)/C(Cl)=C1/Sc2ccccc2NC1=O
inactive: [1] 14.8 µM | [2] 27 µM | [3] 21.2 µM | [5] 32.6 µM | [6] 22.7 µM | [7] 21.9 µM | [8] 32.3 µM | [9] 43.3 µM | [10] 18.4 µM | [11] 71.9 µM | [12] 24.6 µM | [13] 34 µM | [14] 43.4 µM

CCOC(=O)C1=C(C)N(NC(N)=O)C2(N)N(NC(N)=O)C(C)=C(C(=O)OCC)C12C(=O)OCC (stereo unspecified)
inactive: [1] > 100 µM | [2] > 100 µM | [4] > 100 µM | [5] > 100 µM | [6] 47.8 µM | [7] > 100 µM | [8] > 100 µM | [9] > 100 µM | [10] > 100 µM | [13] > 100 µM | [14] > 100 µM

CCCCC(C(=O)CCC(=O)Nc1ccc(Cl)c(Cl)c1)C(=O)C(C)C (stereo unspecified)
inactive: [1] 40.9 µM | [2] > 100 µM | [3] > 100 µM | [4] 85.3 µM | [5] > 100 µM | [6] 21.6 µM | [7] > 100 µM | [8] > 100 µM | [9] 32.3 µM | [10] > 100 µM | [11] 90.4 µM | [12] > 100 µM | [13] > 100 µM | [14] > 100 µM

NNC(=O)c1nnn(CCc2ccccc2)c1C(=O)NN
inactive: [17] > 100 µM | [15] > 100 µM | [1] > 100 µM | [18] > 100 µM | [3] > 100 µM | [4] > 100 µM | [7] > 100 µM | [8] > 100 µM | [9] > 100 µM | [16] > 100 µM | [11] 68.2 µM | [12] > 100 µM | [14] > 100 µM

CCOC(=O)C1(Cc2ccccc2)CCCCCN1 (stereo unspecified)
inactive: [1] > 100 µM | [2] > 100 µM | [3] > 100 µM | [4] > 100 µM | [6] 32.8 µM | [7] > 100 µM | [8] > 100 µM | [10] > 100 µM | [11] > 100 µM | [13] > 100 µM | [14] > 100 µM

O=C(Nc1nnn[nH]1)c1nc(O)cc(-c2ccccc2)n1
inactive: [1] > 100 µM | [2] > 100 µM | [3] > 100 µM | [4] > 100 µM | [5] > 100 µM | [6] > 100 µM | [7] > 100 µM | [8] > 100 µM | [9] > 100 µM | [10] > 100 µM | [11] > 100 µM | [12] > 100 µM | [13] > 100 µM | [14] > 100 µM

COc1ccc(/C=C2\C(=O)N(C(=O)c3ccc(NC(C)=O)cc3)N=C2C)cc1OC
inactive: [1] > 100 µM | [3] > 100 µM | [4] > 100 µM | [6] > 100 µM | [7] > 100 µM | [8] > 100 µM | [9] > 100 µM | [11] > 100 µM | [12] > 100 µM | [13] > 100 µM | [14] > 100 µM

COc1cc(-c2cccs2)sc1-c1cccs1
inactive: [1] 13.6 µM | [2] 25.5 µM | [3] 14.3 µM | [4] 23.3 µM | [6] 14 µM | [7] 50.2 µM | [8] 33.3 µM | [9] 22.3 µM | [10] 31 µM | [11] 41.6 µM | [12] 29.3 µM | [13] 53.6 µM | [14] 97.1 µM

C[C@@H]1[C@H](c2ccccc2)O[B-]2(c3ccc(Br)cc3)OC(=O)C[N+]12C (stereo partly specified)
inactive: [1] 98.9 µM | [2] > 100 µM | [3] 24.9 µM | [4] > 100 µM | [5] > 100 µM | [6] 5.3 µM | [7] > 100 µM | [8] > 100 µM | [9] > 100 µM | [10] > 100 µM | [12] > 100 µM | [13] 94.2 µM | [14] > 100 µM

CCCCCCCCCCCCCC(=O)OCC1OC(=O)CC1O (stereo unspecified)
inactive: [1] 24.9 µM | [2] 88.5 µM | [3] 43 µM | [4] 35.2 µM | [5] > 100 µM | [6] > 100 µM | [7] > 100 µM | [8] > 100 µM | [9] > 100 µM | [10] > 100 µM | [11] > 100 µM | [12] 42 µM | [13] > 100 µM | [14] > 100 µM

CC(C)COC(=O)N1N=NC2C3OC(CC3=O)C21 (stereo unspecified)
inactive: [1] > 100 µM | [2] > 31.6 µM | [3] > 100 µM | [4] > 100 µM | [5] > 100 µM | [6] > 100 µM | [7] > 100 µM | [9] > 100 µM | [10] 40.4 µM | [11] > 100 µM | [12] > 100 µM | [13] > 100 µM | [14] > 100 µM

CC1(CO)OC1COCc1ccccc1 (stereo unspecified)
inactive: [1] > 100 µM | [2] > 100 µM | [3] > 100 µM | [4] > 100 µM | [6] > 100 µM | [8] > 100 µM | [9] > 100 µM | [10] > 100 µM | [12] > 100 µM | [13] > 100 µM | [14] > 100 µM

O=c1[nH]cc(OCC(F)(F)F)c(=O)[nH]1
inactive: [1] > 100 µM | [2] > 100 µM | [3] > 100 µM | [4] > 100 µM | [5] > 100 µM | [6] > 100 µM | [7] > 100 µM | [8] > 100 µM | [9] > 100 µM | [10] > 100 µM | [11] > 100 µM | [12] > 100 µM | [13] > 100 µM | [14] > 100 µM

COc1ccc(C2Oc3c(cc(O)c(OC)c3C)[C@@H]2C)cc1OC (stereo partly specified)
inactive: [1] 47.9 µM | [2] > 100 µM | [3] 50.2 µM | [4] > 100 µM | [5] > 100 µM | [6] 29.7 µM | [7] 42.4 µM | [8] > 100 µM | [9] > 100 µM | [10] > 100 µM | [11] > 100 µM | [12] 78.5 µM | [13] > 100 µM | [14] > 100 µM

— ChEMBL document CHEMBL1201862, “PubChem BioAssay data set” (2004)
